One test addresses DAR-2 (Drosophila melanogaster, UniProt Q7KRX1). The test can be described thus: DAR-2 (allatostatin receptor) calcium response FLIPR assay in transfected CHO cells. The format is cell-based. Conditions: CHO cells transfected with DAR-2 DNA; calcium signal (Fluo-3AM, FLIPR). The procedure:
Compounds of the invention were evaluated in an allatostatin receptor binding assay as has been described (Larsen, M. J. et. al., Biochemical and Biophysical Reseach Communications, 2001, 286, 895-901; Lowery, D. E., et. al., 2001, WO 01/31005). Anthelmintic activity was evaluated in a Ascaris suum muscle tension assay as has been described (Bowman, J. W., et. al., J Neurophys., 1995, 74(5), 1880-8; Davis, R. E., et. al., J. Neurosci., 1989, 9, 403-414).
As previously described (Larsen op.cit.), CHO cells were transfected with the DAR-2 DNA on 10 cm plates ([…]) and were trypsinized 24 h after transfections and were plated at a density of 2×10^4 cells/well in black-walled, 96-well plates and incubated for an additional 24 hrs at 37° C./5% CO2 either with or without pertussis toxin (PTX, 100 ng/ml). On the day of treatment, the media were aspirated, the cells were washed with HBBS/HEPES (Hank's Balanced Salt Solution, supplemented with 10 mM HEPES) and incubated with 4 μM Fluo-3AM in HBSS/HEPES, additionally supplemented with 2.5 mM probenecid to inhibit multi drug resistant pump (0.1 ml/well) for 1 h at 37° C./5% CO2. Plates were washed twice with warm HBSS/HEPES/ probenecid buffer immediately prior to activation of the calcium response and 100 μl buffer/per well was left after the last wash. A calcium response was initiated by the addition of candidate receptor agonist compounds (2× concentration in HBSS/HEPES, 100 μl/well). The DSK-R1/SHEP cells were loaded for 1 h at 37° C./5% CO2 with 4 μM calcium green/0.02% pluronic acid in modified Earle's balanced salt solution containing 4 mM CaCl2 dihydrate, 0.8 mM MgSO4.7H2O, 20 mM NaCl, 20 mM Tris-HEPES, 120 mM N-methyl-D-glucamine/HCl, 5.3 mM KCl, […], and 9 mM Tris base. Fluorescence was measured on a 96-well plate-based fluorescence imaging plate reader (FLIPR) with an argon laser (Molecular Devices, Sunnyvale, Calif.). Basal fluorescence of cells was measured for 20 seconds prior to addition of candidate agonist and the basal fluorescence level was subtracted from the response signal. The calcium signal was measured for approximately 200 seconds with readings every two seconds. Calcium ionophore A23187 was used as a control for non-receptor specific calcium release. […]
Chain of DAR-2 (Q7KRX1 entry or part of it): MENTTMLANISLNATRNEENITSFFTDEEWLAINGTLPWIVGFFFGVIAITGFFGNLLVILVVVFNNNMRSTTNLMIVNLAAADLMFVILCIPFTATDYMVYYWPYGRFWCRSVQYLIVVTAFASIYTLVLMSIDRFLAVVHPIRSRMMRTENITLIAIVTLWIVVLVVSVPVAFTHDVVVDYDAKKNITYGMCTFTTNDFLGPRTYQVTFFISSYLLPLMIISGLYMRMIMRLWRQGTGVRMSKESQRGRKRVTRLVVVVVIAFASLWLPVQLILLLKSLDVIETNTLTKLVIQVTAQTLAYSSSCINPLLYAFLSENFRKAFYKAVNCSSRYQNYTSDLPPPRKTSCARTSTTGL
As to `COc1ccc(C(=O)CSc2nnc(-c3ccncc3)n2-c2ccccc2)cc1` [Compound 6], the IC50 was determined as 54 nM.

On to `O=C(CSc1nnc(-c2ccncc2)n1-c1ccccc1)c1ccc(Cl)cc1` [Compound 7], for which the IC50 is 77 nM.

As to `CC(=O)Nc1ccc(C(=O)CSc2nnc(-c3ccncc3)n2-c2ccccc2)cc1[N+](=O)[O-]` [Compound 9], the IC50 came to 765 nM.

Regarding `CC(=O)Nc1ccc(C(=O)CSc2nnc(-c3ccncc3)n2-c2ccccc2)cc1` [Compound 10], the IC50 was determined as 297 nM.

As to `O=C(CSc1nnc(-c2ccncc2)n1-c1ccccc1)c1ccc(F)cc1` [Compound 11], the IC50 was 268 nM.

For the compound `O=C(CSc1nnc(-c2ccncc2)n1-c1ccccc1)c1ccccc1` [Compound 12], the IC50 came out at 124 nM.

On to `O=C(CSc1nnc(-c2ccncc2)n1-c1ccccc1)c1ccc(Cl)cc1Cl` [Compound 13], for which the half-inhibitory concentration (IC50) came out at 1200 nM.

Consider `O=C(CSc1nnc(-c2ccncc2)n1-c1ccccc1)c1ccc2c(c1)OCCO2` [Compound 14], for which the half-inhibitory concentration (IC50) came out at 436 nM.

Turning to `O=C(CSc1nnc(-c2ccncc2)n1-c1ccccc1)c1ccc2[nH]c(=O)oc2c1` [Compound 15], the half-maximal inhibitory concentration (IC50) was 4500 nM.

In the case of `COc1ccc(-n2c(SCC(=O)c3ccc4c(c3)OCCO4)nnc2-c2ccncc2)cc1` [Compound 36], the IC50 stood at 103 nM.

With `COc1ccc(C(=O)CSc2nnc(-c3ccc(OC)cc3)n2-c2ccccc2)cc1` [Compound 43], the IC50 turned out to be 0.0014 nM.

The next test has as its system Ascaris suum muscle strip. The test is described as follows: Ascaris suum muscle tension assay. Conditions: 30 uM final bath concentration; 2 cm Ascaris suum muscle strip in Ascaris Ringers Solution, 37°. As for the experimental part: Compounds of the invention were evaluated in an allatostatin receptor binding assay as has been described (Larsen, M. J. et. al., Biochemical and Biophysical […] Communications, 2001, 286, 895-901; Lowery, D. E., et. al., 2001, WO 01/31005). Anthelmintic activity was evaluated in a Ascaris suum muscle tension assay as has been described (Bowman, J. W., et. al., J Neurophys., 1995, 74(5), 1880-8; Davis, R. E., et. al., J. Neurosci., 1989, 9, 403-414). As previously described (Bowman, op.cit.), a 2 cm segment of Ascaris suum muscle strip was suspended in a muscle bath filled with 37° Ascaris Ringers Solution {ARS; in mM: KCl (24.5), CaCl2 (5.9), MgCl2 (4.9), NaCl (4), NaC2 H3O2 (125) and Tris (5); pH 7.4}. The preparations were initially set at 12-15 g of tension and allowed to stabilize for approximately 15-30 minutes before drug treatment. Test compounds were added by pipet to the bath with final concentration of 30 uM reflecting the dilution in the test chamber. Raw data was collected from the BioReportTM program.
In the case of `COc1ccc(C(=O)CSc2nnc(-c3ccncc3)n2-c2ccccc2)cc1` [Compound 6], the Activity entry is “Excitatory”.
